# Data from the supplement of paper PMC10307832.
# Assays:
# Assay in all cases: relative viability (nuclei count vs DMSO), 5 days (fraction); higher = more cells survive
# Sunitinib = compound: CCN(CC)CCNC(=O)c1c(C)[nH]c(/C=C2\C(=O)Nc3ccc(F)cc32)c1C [Sunitinib]
# Method in brief: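 Viability is treated-well nuclei as a fraction of vehicle-well nuclei, reported as the median across plates. Before counting, lung cancer cell lines were kept overnight at 37 °C in 1536-well plates, pinned with five √10-spaced library-drug doses on vehicle-anchored plates, and left 5 days without medium change, then fixed, permeabilised and Hoechst-stained in one step, imaged at 4× and counted by MetaXpress. A plate passed only if control CV was below 25% and at least one doubling occurred.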
# Sunitinib + Trametinib = compound: CCN(CC)CCNC(=O)c1c(C)[nH]c(/C=C2\C(=O)Nc3ccc(F)cc32)c1C [Sunitinib] + CC(=O)Nc1cccc(-n2c(=O)n(C3CC3)c(=O)c3c(Nc4ccc(I)cc4F)n(C)c(=O)c(C)c32)c1 [Trametinib] (partner 0.02 µM)
# Method in brief: (§1)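 Lung cancer cell lines were seeded in 1536-well plates and dosed by pin tool the next day, with either a single drug or a fixed anchor-drug dose combined with five library-drug doses (not always all listed) spaced in √10 steps. Five days later, one step fixed the cells and stained their nuclei (final 0.05% Triton X-100, 1% formaldehyde, 1 ug/ml Hoechst), and nuclei were counted on 4× images. Relative viability is the nuclei count in treated wells divided by the count in vehicle wells, and each value is the median of duplicate plates.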
# Sunitinib + OSI-027 = compound: CCN(CC)CCNC(=O)c1c(C)[nH]c(/C=C2\C(=O)Nc3ccc(F)cc32)c1C [Sunitinib] + COc1cccc2cc(-c3nc([C@H]4CC[C@H](C(=O)O)CC4)n4ncnc(N)c34)[nH]c12 [OSI-027] (partner 0.5 µM)
# Method in brief: as §1
# Sunitinib + Phenformin = compound: CCN(CC)CCNC(=O)c1c(C)[nH]c(/C=C2\C(=O)Nc3ccc(F)cc32)c1C [Sunitinib] + N=C(N)NC(=N)NCCc1ccccc1 [Phenformin] (partner 250 µM)
# Method in brief: as §1
Cell Line,relative viability (Sunitinib; 0.02 µM),relative viability (Sunitinib; 0.06325 µM),relative viability (Sunitinib; 0.2 µM),relative viability (Sunitinib; 0.6325 µM),relative viability (Sunitinib; 2 µM),relative viability (Sunitinib + Trametinib; first compound 0.02 µM),relative viability (Sunitinib + Trametinib; first compound 0.06325 µM),relative viability (Sunitinib + Trametinib; first compound 0.2 µM),relative viability (Sunitinib + Trametinib; first compound 0.6325 µM),relative viability (Sunitinib + Trametinib; first compound 2 µM),relative viability (Sunitinib + OSI-027; first compound 0.02 µM),relative viability (Sunitinib + OSI-027; first compound 0.06325 µM),relative viability (Sunitinib + OSI-027; first compound 0.2 µM),relative viability (Sunitinib + OSI-027; first compound 0.6325 µM),relative viability (Sunitinib + OSI-027; first compound 2 µM),relative viability (Sunitinib + Phenformin; first compound 0.02 µM),relative viability (Sunitinib + Phenformin; first compound 0.06325 µM),relative viability (Sunitinib + Phenformin; first compound 0.2 µM),relative viability (Sunitinib + Phenformin; first compound 0.6325 µM),relative viability (Sunitinib + Phenformin; first compound 2 µM)
NCI-H2126,0.946,1.06,1.04,1.04,1.03,0.545,0.59,0.612,0.573,0.605,0.738,0.665,0.988,0.773,0.672,0.509,0.534,0.537,0.561,0.517
NCI-H2170,0.909,0.993,1.05,0.953,0.959,0.905,0.915,1.05,0.927,0.921,0.746,0.687,0.802,0.737,0.576,0.474,0.398,0.436,0.408,0.367
NCI-H2228,1.02,1.21,1.07,0.973,0.962,0.574,0.568,0.593,0.558,0.285,0.523,0.658,0.625,0.529,0.411,0.332,0.405,0.315,0.341,0.322
NCI-H2342,0.96,1.09,1.03,1.01,1.11,0.786,0.877,0.915,0.767,0.813,0.663,0.657,0.589,0.675,0.703,0.523,0.571,0.62,0.542,0.727
NCI-H2347,1.01,1.08,1.1,1.04,1.18,0.293,0.251,0.24,0.314,0.296,0.451,0.507,0.67,0.384,0.552,0.486,0.484,0.567,0.384,0.404
NCI-H2405,1.01,1.06,1.05,1.07,1.01,0.59,0.582,0.662,0.672,0.628,0.647,0.643,0.631,0.65,0.673,0.399,0.391,0.406,0.395,0.406
NCI-H3122,0.986,1.05,0.996,1.01,–,0.289,0.287,0.231,0.233,0.299,0.874,–,1.06,0.917,0.69,0.35,0.387,0.366,0.361,0.288
PC-3 [JPC-3],1.12,1.05,0.981,1.02,1.02,0.754,0.715,0.667,0.772,0.59,0.807,0.773,0.743,0.82,0.754,0.478,0.484,0.471,0.502,0.468
PC-14,1.01,1.01,1.13,1.02,0.898,0.665,0.743,0.833,0.771,0.579,0.716,0.893,1.02,0.795,0.695,0.557,0.552,0.674,0.568,0.571
RERF-LC-KJ,0.956,1.06,1.08,0.992,–,0.903,0.854,0.953,0.87,0.86,0.55,0.574,0.689,0.626,0.525,0.422,0.407,0.48,0.411,0.404
SK-LU-1,0.972,1.19,1.1,1.13,0.959,0.432,0.518,0.545,0.537,0.525,0.323,0.387,0.4,0.348,0.199,0.46,0.63,0.586,0.523,0.409
SK-MES-1,0.931,1.03,1.09,1.11,0.988,0.526,0.528,0.555,0.575,0.459,0.583,0.63,0.681,0.719,0.56,0.619,0.665,0.689,0.655,0.52
SW 1573,0.947,1.17,1.26,1.11,0.905,0.522,0.626,0.515,0.729,0.582,0.617,0.938,0.779,0.781,0.671,0.338,0.449,0.368,0.386,0.306
UMC-11,0.872,1.11,1.01,0.995,0.937,0.709,0.793,0.811,0.787,0.783,0.401,0.526,0.54,0.494,0.462,0.331,0.352,0.355,0.324,0.309
